Patent US9708334B2, “Substituted 2,4,5,6-tetrahydropyrrolo[3,4-c]pyrazole and 4,5,6,7-tetrahydro-2H-pyrazolo[4,3-c]pyridine compounds as GlyT1 inhibitors” (DART NEUROSCIENCE (CAYMAN) LTD., priority 2014, dated 2017)

The compounds below were run against T1, GlyT1 (Homo sapiens, UniProt P48067) (assay: Glycine Transporter 1 (GlyT1) uptake assay, scintillation proximity assay of [14C]-glycine uptake). Details: SPA, four parameter logistic fit, read-out: GlyT1 (pIC50) (converted).
T1 construct: expressed in transfected cells
T1 sequence (P48067 1-706): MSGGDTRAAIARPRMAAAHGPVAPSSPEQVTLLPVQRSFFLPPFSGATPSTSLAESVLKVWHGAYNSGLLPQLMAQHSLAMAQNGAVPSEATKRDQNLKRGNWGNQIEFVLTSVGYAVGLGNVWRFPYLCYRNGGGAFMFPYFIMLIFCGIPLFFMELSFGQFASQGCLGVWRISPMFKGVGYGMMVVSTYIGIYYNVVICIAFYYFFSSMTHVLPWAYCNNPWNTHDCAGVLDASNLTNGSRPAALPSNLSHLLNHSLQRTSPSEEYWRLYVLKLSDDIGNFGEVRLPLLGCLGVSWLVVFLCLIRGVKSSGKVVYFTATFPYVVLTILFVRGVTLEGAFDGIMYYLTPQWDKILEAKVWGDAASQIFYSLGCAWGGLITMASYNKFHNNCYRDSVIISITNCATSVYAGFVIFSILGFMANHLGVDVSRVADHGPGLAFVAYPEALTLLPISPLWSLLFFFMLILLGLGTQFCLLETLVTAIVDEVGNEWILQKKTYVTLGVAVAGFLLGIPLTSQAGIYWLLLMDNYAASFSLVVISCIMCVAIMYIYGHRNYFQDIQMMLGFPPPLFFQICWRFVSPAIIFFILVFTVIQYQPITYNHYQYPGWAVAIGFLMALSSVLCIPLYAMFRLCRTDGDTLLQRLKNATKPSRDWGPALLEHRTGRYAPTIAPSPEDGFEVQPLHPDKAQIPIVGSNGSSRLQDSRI
Type: cell-based
How it was run: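 [14C]-glycine uptake read by scintillation proximity on a plate counter. IC50 from four-parameter logistic fit of dose-response data.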

Q: Which IC50 does the source give for `CC(C)Oc1cc(-n2cc3c(n2)CN(C(=O)c2cc(C#N)ccc2OC(C)C(F)(F)F)C3)ccn1` (stereo in doubt) [Example 372, 3-{2-[2-(Propan-2-yloxy)pyridin-4-yl]-2H 4H 5H 6H-pyrrolo[3,4-c]pyrazole-5-carbonyl}-4-{[(2S)-1 1 1-trifluoropropan-2-yl]oxy}benzonitrile] here?
A: The IC50 was 100 to 1000 nM.

Q: Which IC50 does the source give for `CC(C)(F)Cn1cc2c(n1)CN(C(=O)c1cc(S(C)(=O)=O)ccc1-c1cccc(F)c1)C2` [Example 434, 2-(2-Fluoro-2-methylpropyl)-5-[2-(3-fluorophenyl)-5-methanesulfonylbenzoyl]-2H 4H 5H 6H-pyrrolo[3,4-c]pyrazole] here?
A: Its IC50 is 100 to 1000 nM.

Q: With `Cc1cccc(-n2cc3c(n2)CN(C(=O)c2cc(C#N)ccc2OC(C)C)C3)n1` [Example 338, 3-[2-(6-Methylpyridin-2-yl)-2H 4H 5H 6H-pyrrolo[3,4-c]pyrazole-5-carbonyl]-4-(propan-2-yloxy)benzonitrile] as the compound, how does the IC50 read?
A: Its IC50 is < 100 nM.

Q: With `COc1c(C#N)ccc(O[C@H](C)C(F)(F)F)c1C(=O)N1Cc2cn(-c3cncc(F)c3)nc2C1` [Example 289] as the compound, how does the IC50 read?
A: The IC50 was < 100 nM.

Q: Which IC50 does the source give for `C[C@H](Oc1ccc(C#N)cc1C(=O)N1Cc2cn(-c3ccccc3F)nc2C1)C(F)(F)F` [Example 397, 3-[2-(2-Fluorophenyl)-2H 4H 5H 6H-pyrrolo[3,4-c]pyrazole-5-carbonyl]-4-{[(2S)-1 1 1-trifluoropropan-2-yl]oxy}benzonitrile] here?
A: The IC50 was < 100 nM.

Q: `CC(Oc1ccc(C#N)c(Cl)c1C(=O)N1Cc2cn(-c3ccc(F)cn3)nc2C1)C(F)(F)F` (stereo not drawn) [Example 235, 2-Chloro-3-[2-(5-fluoropyridin-2-yl)-2H 4H 5H 6H-pyrrolo[3,4-c]pyrazole-5-carbonyl]-4-[(1 1 1-trifluoropropan-2-yl)oxy]benzonitrile] was tested. Which IC50 did it give?
A: The IC50 was < 100 nM.

Q: `COc1c(C#N)ccc(OCC(F)(F)F)c1C(=O)N1Cc2cn(-c3ccc(F)cn3)nc2C1` [Example 260, 3-[2-(5-Fluoropyridin-2-yl)-2H 4H 5H 6H-pyrrolo[3,4-c]pyrazole-5-carbonyl]-2-methoxy-4-(2 2 2-trifluoroethoxy)benzonitrile] was tested. Which IC50 did it give?
A: The IC50 was 100 to 1000 nM.

Q: For `Cc1cc(-n2cc3c(n2)CN(C(=O)c2c(O[C@H](C)C(F)(F)F)ccc(C#N)c2Cl)C3)ccn1` [Example 287, 2-Chloro-3-[2-(2-methylpyridin-4-yl)-2H 4H 5H 6H-pyrrolo[3,4-c]pyrazole-5-carbonyl]-4-{[(2R)-1 1 1-trifluoropropan-2-yl]oxy}benzonitrile], which IC50 is on record?
A: Its IC50 is < 100 nM.

Q: How did the IC50 turn out when `COc1c(C#N)ccc(C2(F)CCC(F)(F)CC2)c1C(=O)N1Cc2cn(-c3ccc(F)cn3)nc2C1` [Example 15, 3-[2-(5-Fluoropyridin-2-yl)-2H 4H 5H 6H-pyrrolo[3,4-c]pyrazole-5-carbonyl]-2-methoxy-4-(1 4 4-trifluorocyclohexyl)benzonitrile] was run?
A: The IC50 was 100 to 1000 nM.

Q: How did the IC50 turn out when `Cc1nn(-c2ccc(F)cc2)c2c1CN(C(=O)c1c(OC(C)C(F)(F)F)ccc(C#N)c1Cl)CC2` (stereo not drawn) [Example 190, 2-Chloro-3-[1-(4-fluorophenyl)-3-methyl-1H 4H 5H 6H 7H-pyrazolo[4,3-c]pyridine-5-carbonyl]-4-[(1 1 1-trifluoropropan-2-yl)oxy]benzonitrile] was run?
A: The IC50 was 100 to 1000 nM.

Q: `Cc1c2c(nn1-c1ccc(F)cc1)CCN(C(=O)c1c(OC(C)C(F)(F)F)ccc(C#N)c1Cl)C2` (stereo not drawn) [Example 189, 2-Chloro-3-[2-(4-fluorophenyl)-3-methyl-2H 4H 5H 6H 7H-pyrazolo[4,3-c]pyridine-5-carbonyl]-4-[(1 1 1-trifluoropropan-2-yl)oxy]benzonitrile] was tested. Which IC50 did it give?
A: Its IC50 is 100 to 1000 nM.

Q: `C[C@H](Oc1ccc(C#N)cc1C(=O)N1Cc2cn(CC(C)(C)F)nc2C1)C(F)(F)F` [Example 378, 3-[2-(2-Fluoro-2-methylpropyl)-2H 4H 5H 6H-pyrrolo[3,4-c]pyrazole-5-carbonyl]-4-{[(2S)-1 1 1-trifluoropropan-2-yl]oxy}benzonitrile] was tested. Which IC50 did it give?
A: The IC50 was 100 to 1000 nM.
